Assays:
Type in all cases: cell-based, Erythrocyte
[1] = Toxicity in mouse erythrocytes assessed as hemolysis at 0.08 mM during 5 mins; conditions: read-out: Activity
[2] = Toxicity in mouse erythrocytes assessed as hemolysis
[3] = Toxicity in mouse erythrocytes assessed as hemolysis at 0.1 mM during 5 mins

Row | SMILES | hemolysis at 5 min, 80 µM [1] | HC50 [2] | hemolysis at 5 min, 100 µM ([3]; mouse erythrocytes, read-out: Activity) | Activity ([3]; erythrocyte, 5 min, 100 µM)
1 | CO[C@@H]1[C@@H](OC)[C@H](O[C@@H]2C=C3[C@H](O)C[C@@]4(O)[C@@H]5[C@@H](O)[C@H](O)[C@H]([C@H](C)/C=C/[C@@H](C)[C@H](C)CO)[C@@]5(C)CC[C@@H]4[C@@]3(C)CC2)OC[C@H]1O [HENRICIOSIDE H2] | 70% | 120 µM |  | 
2 | CO[C@H]1[C@H](O[C@H]2CC[C@@]3(C)[C@H]([C@H]2O)[C@H](O)C[C@]2(O)[C@@H]3CC[C@]3(C)[C@@H]([C@H](C)CC[C@H](O[C@@H]4O[C@@H](CO)[C@H](O)[C@H]4O)C(C)C)C[C@H](O)[C@H]32)OC[C@@H](OC)[C@@H]1O [LAEVIUSCOLOSIDE G] |  | 130 µM |  | 
3 | CC(C)[C@@H](O)CC[C@@H](C)[C@H]1C[C@@H](O)[C@@H]2[C@]1(C)CC[C@@H]1[C@@]3(C)CC[C@H](O)[C@H](O)[C@@H]3[C@H](O)C[C@]12O |  | 53 µM | 100% | 
4 | CO[C@@H]1[C@@H](OC)[C@H](O[C@@H]2C=C3[C@H](O)C[C@@]4(O)[C@@H]5[C@@H](O)[C@H](O)[C@H]([C@H](C)/C=C/C(C)CCO)[C@@]5(C)CC[C@@H]4[C@@]3(C)CC2)OC[C@H]1O (some centres undefined) | 100% | 80 µM |  | 
5 | C[C@H](CC[C@@H](O)C(C)(C)O)[C@H]1C[C@@H](O)[C@@H]2[C@]1(C)CC[C@@H]1[C@@]3(C)CC[C@H](O)[C@H](O)[C@@H]3[C@H](O)C[C@]12O |  | 210 µM |  | Not Active

From ChEMBL document CHEMBL1157248, “Polar steroidal compounds from the far eastern starfish Henricia leviuscula” (J Nat Prod, 2006)
